Calls of active or inactive are those of the source. No cut-off for these calls is given here. Peptide text beside a SMILES is read from it.
Tests used:
Tumor necrosis factor [1] = molecular target: T1, Tumor necrosis factor (Homo sapiens, UniProt P01375); test: Binding affinity to recombinant TNF-alpha (unknown origin) assessed as dissociation constant incubated for 10 mins by MST assay
Tumor necrosis factor [2] = molecular target: T1, Tumor necrosis factor; test: Binding affinity to recombinant TNF-alpha (unknown origin) at 488.3 to 500 uM incubated for 10 mins by MST assay; conditions: dose 488.3-500 µM

T1 sequence (P01375 whole entry): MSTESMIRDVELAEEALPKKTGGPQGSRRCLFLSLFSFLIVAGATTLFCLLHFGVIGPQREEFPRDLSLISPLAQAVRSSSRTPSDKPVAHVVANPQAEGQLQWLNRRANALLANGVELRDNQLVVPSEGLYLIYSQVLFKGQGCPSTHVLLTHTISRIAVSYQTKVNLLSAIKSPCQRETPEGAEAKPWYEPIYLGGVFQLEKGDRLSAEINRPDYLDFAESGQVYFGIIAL

Row | Compound | Kd (Tumor necrosis factor [1]) | Activity (Tumor necrosis factor [2])
1 | C[C@H](N)C(=O)N[C@@H](CS)C(=O)N[C@@H](C)C(=O)N[C@@H](C)C(=O)N[C@@H](Cc1c[nH]c2ccccc12)C(=O)N[C@@H](C)C(=O)N1CCC[C@H]1C(=O)N[C@H](C(=O)N[C@@H](CCCNC(=N)N)C(=O)O)[C@@H](C)O (H-ACAAWAPTR-OH) | 230 µM | 
2 | CC[C@H](C)[C@H](NC(=O)[C@H](CCCCN)NC(=O)[C@H](CCCCN)NC(=O)[C@H](C)N)C(=O)N[C@H](C(=O)N[C@@H](CC(C)C)C(=O)N[C@@H](CCCNC(=N)N)C(=O)N[C@@H](CC(C)C)C(=O)N[C@@H](CO)C(=O)O)[C@@H](C)CC (H-AKKIILRLS-OH) |  | inactive
3 | C[C@H](N)C(=O)N[C@@H](CS)C(=O)N[C@@H](Cc1c[nH]cn1)C(=O)N[C@@H](C)C(=O)N[C@@H](Cc1c[nH]c2ccccc12)C(=O)N[C@@H](C)C(=O)N1CCC[C@H]1C(=O)N[C@@H](C)C(=O)N[C@@H](CCCNC(=N)N)C(=O)O (H-ACHAWAPAR-OH) | 18 µM | 
4 | CC[C@H](C)[C@H](NC(=O)CNC(=O)[C@H](CC(C)C)NC(=O)[C@H](CC(C)C)NC(=O)[C@H](CO)NC(=O)[C@H](CC(C)C)NC(=O)[C@@H](NC(=O)[C@H](CCC(N)=O)NC(=O)[C@@H](N)CC(N)=O)[C@@H](C)CC)C(=O)O (H-NQILSLLGI-OH) |  | inactive
5 | C[C@H](N)C(=O)N[C@@H](CS)C(=O)N[C@@H](Cc1c[nH]cn1)C(=O)N[C@@H](C)C(=O)N[C@@H](C)C(=O)N[C@@H](C)C(=O)N1CCC[C@H]1C(=O)N[C@H](C(=O)N[C@@H](CCCNC(=N)N)C(=O)O)[C@@H](C)O (H-ACHAAAPTR-OH) | 563 µM | 
6 | C[C@H](N)C(=O)N[C@@H](CS)C(=O)N[C@@H](Cc1c[nH]cn1)C(=O)N[C@@H](C)C(=O)N[C@@H](Cc1c[nH]c2ccccc12)C(=O)N[C@@H](C)C(=O)N[C@@H](C)C(=O)N[C@H](C(=O)N[C@@H](CCCNC(=N)N)C(=O)O)[C@@H](C)O (H-ACHAWAATR-OH) | 9.06 µM | 
